Results taken from patent US6929685B2, “Alkylamine derivatives as antifouling agents” (Bayer Atiengesellschaft, priority 2001, dated 2005).

Tests used:
[1] = system: algae; assay: Raft panel static immersion test of antifouling paints: algae; set-up: key: G: Not present; Some light slime; F: Overall covered; conditions: Dutch harbor, sea water
Excerpt: (§1) The prepared paints have been evaluated on can stability, adhesion and film defects. The antifouling performance has been tested by application of the paints on raft panels. At first the steel panels had been protected with a standard anticorrosive system for marine environments (300 μm in dft). The to be tested antifouling paint had been applied in 2 layers with a total dry film thickness between 200 and 300 μm. Finally the panels were subjected to a static immersion test on rafts at sea harbors in Holland. The paints were inspected for the presence of fouling (% of area covered with fouling organisms) and of film defects every two months. The tested paint formulations are represented in Table 1.
(§2) Further explanations to Table 1: • 1. Model coatings of type 1 (MC-1A/B/C) are for the evaluation of the algicidal properties of the claimed structures at three different representative weight-% next to 35% cuprous oxide. Good performing references are model coating MC-2 and MC-3 [35% cuprous oxide+3% Seanine (MC-2) or 35% cuprous oxide+3% Irgarol (MC-3)]. Base level references are “cuprous oxide only” formulations [cuprous oxide only (35% (MC4) and 50% level (MC-5)]. • 2. Model coatings of type 6 and 7 are for the evaluation of the activity of the claimed structures against “hard fouling” in combination with two different types of algicides: claimed structure (1/2/4%; MC-6-A/B/C)+3% Seanine or claimed structure (1/2/4%; MC-7-A/B/C)+3% Irgarol). Base level references are “algicide only” formulations with 3% Seanine (MC-8) or 3% Irgarol (MC-9).
(§3) 3. Model coatings of type 10 (MC-10A/B) evaluate the total spectrum of biocidal activity by using the claimed structure as only biocide at 2 levels (4 and 8 w %). Good performing references are “cuprous oxide only” formulations [cuprous oxide 35% (MC-4) and 50% (MC-5)]. As blank serves model coating 11 (MC-1 1) containing no biocide at all.
(§4) The claimed structures were tested at several levels of dosage with and without an algicide as co-biocide. The following formulations were used for comparison: formulations with cuprous oxide, formulations with cuprous oxide and commercial co-biocides, a blank and two formulations that only contained the co-biocide and finally a commercial tributyltin-releasing self polishing system.
(§5) An even better protection can be obtained by combining claimed structures with co-biocides like the algicides that are commonly used for antifoulings.

[2] = system: cyprid larvae of the barnacle Balanus amphitrite; assay: Settlement assay, cyprid larvae of the barnacle; format: in vivo; conditions: Balanus amphitrite cyprids, seawater, 27° C., Spearman-Karber
Protocol: The rate of settlement of laboratory reared cyprid larvae of the barnacle Balanus amphitrite was determined for testing the activity of candidate antifouling compounds. Settlement Assay Tests are carried out in four replicates in sterile polystyrene multi well plates. Between 25 and 40 cyprid larvae are injected in the dishes containing either 2 ml of test solution (see below), solvent control or a positive control (dichloro-n-octyl-isothiazolinone). Dishes are incubated for 24 h at a temperature of 27° C. ±2. After incubation the cyprids are screened for signs of toxicity. The test is terminated by addition of a drop of 20% formaldehyde and the numbers of settled and non-settled larvae are counted. Settlement is evaluated as follows: 1) non settled: not attached free-swimming cyprids, 2) settled cyprids: attached, but not metamorphosed cyprids, 3) barnacles: attached juvenile barnacles. Categories 2 and 3 are considered to be settled. Percentage settlement in test solution is compared with controls. Estimates of the median effect concentration (EC50) after […] are calculated using the Spearman-Karber method. All seawater used is of natural origin and filtered unto 0.2 μm. Stock solutions of test compounds are prepared by dissolving an amount of test substance in a suitable solvent and subsequent addition of seawater. […]

[3] = system: hard fouling; assay: Raft panel static immersion test of antifouling paints: hard fouling; set-up: key: G: Not present; Some light slime; F: Overall covered; conditions: Dutch harbor, sea water
Excerpt: as §1, §2, §3, §4, §5

[4] = system: fouling organisms; assay: Raft panel static immersion test of antifouling paints: overall; set-up: key: good (G); satisfactory (S); failure (F); conditions: Dutch harbor, sea water
Excerpt: as §1, §2, §3, §4, §5

[5] = system: slime; assay: Raft panel static immersion test of antifouling paints: slime; set-up: key: G: Not present; Some light slime; F: Overall covered; conditions: Dutch harbor, sea water
Excerpt: as §1, §2, §3, §4, §5

[6] = model coating 1B: 35% Cu2O + 2% of compound
[7] = model coating 1C: 35% Cu2O + 3% of compound
[8] = model coating 6A: 1% of compound + 3% Seanine
[9] = model coating 6B: 2% of compound + 3% Seanine
[10] = model coating 6C: 4% of compound + 3% Seanine
[11] = model coating 7A: 1% of compound + 3% Irgarol
[12] = model coating 7B: 2% of compound + 3% Irgarol
[13] = model coating 7C: 4% of compound + 3% Irgarol
[14] = model coating 1A: 35% Cu2O + 1% of compound
[15] = model coating 10B: 8% of compound as only biocide
[16] = model coating 10A: 4% of compound as only biocide

C=CCCCCCCCCCNC=O [Compound 8, N-formyl-1-aminoundec-10-ene]
Performance (1 yr immersed) Algae [1, 6]: G
Performance (1 yr immersed) Algae [1, 7]: G
Performance (1 yr immersed) Algae [1, 8]: G
Performance (1 yr immersed) Algae [1, 9]: G
Performance (1 yr immersed) Algae [1, 10]: G
Performance (1 yr immersed) Algae [1, 11]: G
Performance (1 yr immersed) Algae [1, 12]: G
Performance (1 yr immersed) Algae [1, 13]: G
EC50 for settlement inhibition in ppm [2]: 0.60 ppm
Performance (1 yr immersed) Hard fouling [3, 14]: G
Performance (1 yr immersed) Hard fouling [3, 6]: G
Performance (1 yr immersed) Hard fouling [3, 7]: G
Performance (1 yr immersed) Hard fouling [3, 10]: G
Performance (1 yr immersed) Hard fouling [3, 15]: G
Performance (1 yr immersed) Overall [4, 14]: S
Performance (1 yr immersed) Overall [4, 6]: S
Performance (1 yr immersed) Overall [4, 7]: G
Performance (1 yr immersed) Overall [4, 8]: F
Performance (1 yr immersed) Overall [4, 9]: S
Performance (1 yr immersed) Overall [4, 10]: G
Performance (1 yr immersed) Overall [4, 11]: F
Performance (1 yr immersed) Overall [4, 12]: S
Performance (1 yr immersed) Overall [4, 13]: S
Performance (1 yr immersed) Overall [4, 16]: F
Performance (1 yr immersed) Overall [4, 15]: S
Performance (1 yr immersed) Slime [5, 14]: S
Performance (1 yr immersed) Slime [5, 6]: S
Performance (1 yr immersed) Slime [5, 7]: G
Performance (1 yr immersed) Slime [5, 8]: S
Performance (1 yr immersed) Slime [5, 9]: S
Performance (1 yr immersed) Slime [5, 10]: G
Performance (1 yr immersed) Slime [5, 11]: S
Performance (1 yr immersed) Slime [5, 12]: S
Performance (1 yr immersed) Slime [5, 13]: S
Performance (1 yr immersed) Slime [5, 16]: F
Performance (1 yr immersed) Slime [5, 15]: S
